Data as given in paper PMC11384632, “Protease-activated CendR peptides targeting tenascin-C: mitigating off-target tissue accumulation” (Drug Delivery and Translational Research, 2024).
Peptide text beside a SMILES is read from it. * marks the point of attachment. 5FAM = O=C1OC2(c3ccc(O)cc3Oc3cc(O)ccc32)c2ccc(C(=O)*)cc21; Ahx = NCCCCCC(=O)O

Tested on: orthotopic WT-GBM-bearing nude mice
Test: Biodistribution of monomeric FAM-labeled peptides in WT-GBM mice (anti-FAM DAB immunohistochemistry)
Format: in vivo
Settings: 200 µg i.v., 1 h circulation, perfused, anti-FAM DAB staining, qualitative, n = 3, Fig. 6d
Text: Whereas polyvalent targeting systems, such as bacteriophages and AgNPs used in previous sections, exploit multivalent interactions to enhance specificity and binding efficiency, monovalent targeting systems rely on single ligand-receptor interactions for targeted drug delivery. The choice between these two approaches depends on affinity of the targeting ligand and the pharmacokinetic properties of the therapeutic agent. We next studied in vivo biodistribution of monomeric FAM-labeled SKLG, PL3, and scrambled PL3 control (scrPL3) peptides in WT-GBM tumor-bearing mice. The mice were dosed with FAM-labeled peptides followed by perfusion, tissue collection, sectioning, and detection of the peptides using immunohistochemistry with anti-FAM antibodies.
Fig. 6 Biodistribution of monomeric FAM-labeled peptides in WT-GBM mice. Orthotopic GBM-bearing nude mice were i.v. injected with FAM-labeled scrambled PL3 control (scrPL3), PL3 or SKLG peptides. After 1 h of circulation the mice were anesthetized and perfused. Organs were harvested, sectioned, and parallel sections were immunostained with hematoxylin & eosin (H&E) staining or anti-FAM 3, 3'-diaminobenzidine (DAB) staining. (a) H&E of WT-GBM tumor-bearing brain tissue sections. (b) DAB staining of WT-GBM tumor region in the brain. (c) H&E staining of lung tissue sections. (d) DAB staining of lung tissue sections. […]

CC(C)C[C@H](NC(=O)[C@H](CCCNC(=N)N)NC(=O)CNC(=O)[C@H](CCCNC(=N)N)NC(=O)CNC(=O)[C@H](C)NC(=O)[C@H](CCCNC(=N)N)NC(=O)CCCCCNC(=O)c1ccc2c(c1)C(=O)OC21c2ccc(O)cc2Oc2cc(O)ccc21)C(=O)N[C@H](C(=O)O)C(C)C [scrPL3] ({5FAM-Ahx}-RAGRGRLV-OH)
accumulation of FAM-labeled peptide in pulmonary tissue: only a background signal
